# Assay results reported in patent US20060046966A1, “Antipicornaviral compounds and compositions, their pharmaceutical uses, and materials for their synthesis” (Agouron Pharmaceuticals, Inc., priority 1998, published 2006).
# Read-outs that look alike come from different tables or passages of the source.
# Assays:
# [1] = molecular target: T1, rhinovirus 3C protease from HRV serotype-14 (Human rhinovirus 14, UniProt P03303); assay: Inhibition of rhinovirus 3C protease (FRET assay), serotype 14; assay type: biochemical; settings: HRV serotype-14 3C protease; progress curves in enzyme start experiments; read-out: Protease Inhibition kobs/[I]
# T1 construct: Recombinant rhinovirus 3C proteases; made in house
# Method: (§1) Stock solutions (50 mM, in DMSO) of various compounds were prepared; dilutions were in the same solvent. Recombinant rhinovirus 3C proteases (see Birch et al., “Purification of recombinant human rhinovirus 14 3C protease expressed in Escherichia coli,” Protein Expr. Pur. 1995, 6(5), 609-618) from serotypes 14, 16, and 2 were prepared by the following standard chromatographic procedures: (1) ion exchange using Q Sepharose Fast Flow from Pharmacia; (2) affinity chromatography using Affi-Gel Blue from Biorad; and (3) sizing using Sephadex G-100 from Pharmacia. Each assay sample contained 2% DMSO, 50 mM tris pH 7.6, 1 mM EDTA, a test compound at the indicated concentration, approximately 1 μM substrate, and 50-100 nM protease. The kobs/I values were obtained from reactions initiated by addition of enzyme rather than substrate. RVP activity was measured in the fluorescence resonance energy transfer assay. The substrate was (N-terminal) DABCYL-(Gly-Arg-Ala-Val-Phe-Gln-Gly-Pro-Val-Gly)-EDANS. In the uncleaved peptide, the EDANS fluorescence was quenched by the proximal DABCYL moiety. When the peptide was cleaved, the quenching was relieved, and activity was measured as an increase in fluorescence signal. In Table 1, all data are for rhinovirus 3C protease from HRV serotype-14 (produced from the infectious cDNA clone constructed by Dr. Robert Rueckert, Institute for Molecular Virology, University of Wisconsin, Madison, Wis.). […] The data in the column designated kobs/[I] were measured from progress curves in enzyme start experiments.
# [2] = test system: HRV (89); assay: Antirhinoviral H1-HeLa cell culture assay, HRV serotype 89; assay type: cell-based, human rhinovirus; settings: H1-HeLa cells, XTT
# Method: (§2) In this cell protection assay, the ability of compounds to protect cells against HRV infection was measured by the XTT dye reduction method, which is described in Weislow et al., J. Natl. Cancer Inst. 1989, vol. 81, 577-586.
# (§3) H1-HeLa cells were infected with HRV-14 at a multiplicity of infection (m.o.i.) of 0.13 (virus particles/cell) or mock-infected with medium only. Infected or mock-infected cells were resuspended at 8×10^5 cells per mL, and incubated with appropriate concentrations of the compounds to be tested. Two days later, XTT/PMS was added to test plates and the amount of formazan produced was quantified spectrophotometrically at 450/650 nm. The EC50 value was calculated as the concentration of compound that increased the percentage of formazan production in compound-treated, virus-infected cells to 50% of that produced by compound-free, mock-infected cells. The 50% cytotoxic dose (CC50) was calculated as the concentration of compound that decreased the percentage of formazan produced in compound-treated, mock-infected cells to 50% of that produced by compound-free, mock-infected cells. The therapeutic index (TI) was calculated by dividing the CC50 value by the EC50 value.
# (§4) All strains of human rhinovirus (HRV) for use in this assay were purchased from American Type Culture Collection (ATCC), except for HRV serotype-14 (produced from the infectious cDNA clone constructed by Dr. Robert Rueckert, Institute for Molecular Virology, University of Wisconsin, Madison, Wis.). HRV stocks were propagated and viral assays were performed in H1-HeLa cells (ATCC). Cells were grown in minimal essential medium with 10% fetal bovine serum, available from Life Technologies (Gaithersburg, Md.).
# (§5) The compounds were tested against control compounds WIN 51711, WIN 52084, and WIN 54954 (obtained from Sterling-Winthrop Pharmaceuticals), Pirodavir (obtained from Janssen Pharmaceuticals), and Pleconaril (prepared according to the method described in Diana et al., J. Med. Chem 1995, vol. 38, 1355). Antiviral data obtained for the test compounds are shown in Tables 1 and 3, where all data are for HRV serotype-14 unless otherwise noted in parentheses.
# [3] = test system: HRV (1A); assay: Antirhinoviral H1-HeLa cell culture assay, HRV serotype 1A; assay type: cell-based; settings: Human rhinovirus sp., H1-HeLa cells, XTT
# Method: as §2, §3, §4, §5
# [4] = test system: HRV (2); assay: Antirhinoviral H1-HeLa cell culture assay, HRV serotype 2; assay type: cell-based, human rhinovirus; settings: H1-HeLa cells, XTT
# Method: as §2, §3, §4, §5
# [5] = test system: HRV-14; assay: Antirhinoviral H1-HeLa cell culture assay, HRV-14; assay type: cell-based, human rhinovirus; settings: Rhinovirus B, HRV14, H1-HeLa, HRV serotype-14, H1-HeLa cells
# Method: as §2, §3, §4, §5
# [6] = test system: HRV (10); assay: Antirhinoviral H1-HeLa cell culture assay, HRV serotype 10; assay type: cell-based, human rhinovirus; settings: H1-HeLa cells, XTT
# Method: as §2, §3, §4, §5
# [7] = test system: HRV (17); assay: Antirhinoviral H1-HeLa cell culture assay, HRV serotype 17; assay type: cell-based, human rhinovirus; settings: H1-HeLa cells, XTT
# Method: as §2, §3, §4
# (§6) The compounds were tested against control compounds WIN 51711, WIN 52084, and WIN 54954 (obtained from Sterling-Winthrop Pharmaceuticals), Pirodavir (obtained from Janssen Pharmaceuticals), and Pleconaril (prepared according to the method described in Diana et al., J. Med. Chem 1995, vol. 38, 1355). […]
# [8] = test system: HRV (39); assay: Antirhinoviral H1-HeLa cell culture assay, HRV serotype 39; assay type: cell-based, human rhinovirus; settings: H1-HeLa cells, XTT
# Method: as §2, §3, §4, §6
# [9] = test system: HRV (3); assay: Antirhinoviral H1-HeLa cell culture assay, HRV serotype 3; assay type: cell-based, human rhinovirus; settings: H1-HeLa cells, XTT
# Method: as §2, §3, §4, §6
# [10] = test system: HRV (9); assay: Antirhinoviral H1-HeLa cell culture assay, HRV serotype 9; assay type: cell-based, human rhinovirus; settings: H1-HeLa cells, XTT
# Method: as §2, §3, §4, §6
# [11] = test system: HRV (13); assay: Antirhinoviral H1-HeLa cell culture assay, HRV serotype 13; assay type: cell-based, human rhinovirus; settings: H1-HeLa cells, XTT
# Method: as §2, §3, §4, §6
# [12] = Cytotoxicity in mock-infected H1-HeLa cells (antirhinoviral assay, XTT); assay type: cell-based; settings: human, 50% cytotoxic dose, two days
# Method: as §3, §4
# [13] = molecular target: T2, rhinovirus 3C protease, serotype 2 (Human rhinovirus 2, UniProt P04936); assay: Inhibition of rhinovirus 3C protease (FRET assay), serotype 2; assay type: biochemical; settings: Rhinovirus Serotype (2) 3C protease; read-out: kobs/I
# T2 construct: Recombinant rhinovirus 3C proteases; made in house
# Method: as §1
# [14] = test system: Echovirus type 11 (EV 11); assay: Anti-echoviral cell culture assay, EV 11; assay type: cell-based; settings: Enterovirus B, MRC5, 96 h
# Method: Echovirus type 11 (EV 11) and enterovirus type 70 (EV 70) were purchased from ATCC (Rockville, Md.). Virus stocks were propagated and antiviral assays were performed in MRC-5 cells (ATCC). Cells were grown in minimal essential medium with 10% fetal bovine serum (Life Technologies, Gaithersburg, Md.).
# The ability of compounds to protect cells against either EV 11 or EV 70 infection was measured by the XTT dye reduction method (Weislow et al., J. Natl. Cancer Inst. 1989, vol. 81, 577-586). MRC-5 cells were infected with EV 11 or EV 70 at an m.o.i. of 0.003 or 0.004, respectively, or mock-infected with medium only. Infected or uninfected cells were added at 1×10^4 cells per well and incubated with appropriate concentrations of compound. Four days later, XTT/PMS was added to test plates, and the amount of formazan produced was quantified spectrophotometrically at 450/650 nm. The EC50 was calculated as the concentration of compound that increased the formazan production in compound-treated, virus-infected cells to 50% of that produced by compound-free, uninfected cells. The 50% cytotoxic dose (CC50) was calculated as the concentration of compound that decreased formazan production in compound-treated, uninfected cells to 50% of that produced in compound-free, uninfected cells. The therapeutic index (TI) was calculated by dividing the CC50 by the EC50.
# The compounds were tested against control compounds Pirodavir (obtained from Janssen Pharmaceuticals) and Pleconaril (prepared according to Diana et al., J. Med. Chem. 1995, vol. 38, 1355). Antiviral data obtained for the test compounds against strain EV 11 and EV 70 are shown below in Table 5.
# [15] = test system: Coxsackievirus type A-21 (CAV-21); assay: Anticoxsackieviral cell culture assay, CAV-21; assay type: cell-based; settings: H1-HeLa, 48 h
# Method: (§7) Coxsackievirus types A-21 (CAV-21) and B3 (CVB-3) were purchased from American Type Culture Collection (ATCC, Rockville, Md.). Virus stocks were propagated and antiviral assays were performed in H1-HeLa cells (ATCC). Cells were grown in minimal essential medium with 10% fetal bovine serum (Life Technologies, Gaithersburg, Md.).
# (§8) The ability of compounds to protect cells against either CAV-21 or CVB-3 infection was measured by the XTT dye reduction method. This method is described in Weislow et al., J. Natl. Cancer Inst. 1989, vol. 81, 577-586. H1-HeLa cells were infected with CAV-21 or CVB-3 at a multiplicity of infection (m.o.i.) of 0.025 or 0.075, respectively, or mock-infected with medium only. H1-HeLa cells were plated at 4×10^4 cells per well in a 96-well plate and incubated with appropriate concentrations of the test compound. One day (CVB-3) or two days (CAV-21) later, XTT/PMS was added to test plates and the amount of formazan produced was quantified spectrophotometrically at 450/650 nm. The EC50 was calculated as the concentration of compound that increased the formazan production in compound-treated, virus-infected cells to 50% of that produced by compound-free, uninfected cells. The 50% cytotoxic dose (CC50) was calculated as the concentration of compound that decreased formazan production in compound-treated, uninfected cells to 50% of that produced in compound-free, uninfected cells. The therapeutic index TI) was calculated by dividing the CC50 by the EC50.
# (§9) The compounds were tested against control compounds WIN 54954 (obtained from Sterling-Winthrop Pharmaceuticals), Pirodavir (obtained from Janssen Pharmaceuticals), and Pleconaril (prepared according to Diana et al., J. Med. Chem. 1995, 38, 1355).
# [16] = test system: Coxsackievirus type B3 (CVB-3); assay: Anticoxsackieviral cell culture assay, CVB-3; assay type: cell-based; settings: H1-HeLa, 24 h
# Method: as §7, §8, §9
# [17] = Table 1, XTT dye reduction, read-out: Cell Protection EC50
# T1 sequence (P03303 1538-1719): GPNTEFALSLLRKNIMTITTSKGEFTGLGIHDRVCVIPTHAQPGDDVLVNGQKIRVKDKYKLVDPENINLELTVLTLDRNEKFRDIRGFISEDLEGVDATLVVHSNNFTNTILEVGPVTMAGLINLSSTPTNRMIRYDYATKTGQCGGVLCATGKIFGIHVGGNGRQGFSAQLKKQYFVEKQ
# T2 sequence (P04936 1508-1690): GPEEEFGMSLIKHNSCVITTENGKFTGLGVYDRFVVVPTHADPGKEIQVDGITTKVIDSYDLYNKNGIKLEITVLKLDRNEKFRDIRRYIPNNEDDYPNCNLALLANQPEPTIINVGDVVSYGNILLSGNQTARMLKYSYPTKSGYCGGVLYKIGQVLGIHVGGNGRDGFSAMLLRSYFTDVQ
SMILES,kinact/KI [1] [M⁻¹ s⁻¹],EC50 [3] [nM],"EC50 [5, 17] [nM]","EC50 ([5]; Table 3, XTT, read-out: EC50) [nM]","EC50 ([6]; Human rhinovirus sp., H1-HeLa) [nM]",CC50 at 2 days [12] [nM],also measured
"CCOC(=O)/C=C/[C@H](CCC(N)=O)NC(=O)[C@H](Cc1ccccc1)NC(=O)[C@H](CC(C)C)NC(=O)c1ccno1 [Compound A-2, Ethyl-3-((Isoxazole-5′-carbonyl)-L-Leu-L-Phe-L-Gln)-E-Propenoate]",46900,,1600,1600,,,melting point: 217 to 220 °C
"CCOC(=O)/C=C/[C@H](C[C@@H]1CCNC1=O)NC(=O)[C@H](Cc1ccc(F)cc1)NC(=O)[C@@H](NC(=O)c1cc(C)on1)C(C)(C)C [Compound A-7, Ethyl-3-{(5′-Methylisoxazole-3′-carbonyl)-L-α-(t-Butyl-Gly)-L-(4-F-Phe)-L-((S)-Pyrrol-Ala)}-E-Provenoate]",980000,,4,,,,EC50 [6]: 60 nM; EC50 [7]: 20 nM; EC50 [8]: 20 nM; EC50 [2]: 20 nM; EC50 [9]: 20 nM; EC50 [4]: 20 nM; EC50 [10]: 40 nM; EC50 [11]: 30 nM
CCOC(=O)/C=C/[C@H](CCC(N)=O)NC(=O)[C@H](Cc1ccccc1)NC(=O)[C@H](CC(C)C)NC(=O)c1nc(C)c[nH]1 [Compound A-21],17800,,2500,2500,,> 100000,
"Cc1cc(CCCOc2c(C)cc(-c3noc(C(F)(F)F)n3)cc2C)on1 [Pleconaril, reference compound]",,,,10,,,EC50 [14]: 160 nM; EC50 [15]: 90 nM; EC50 [16]: > 10000 nM

# The next lines start with results.
kinact/KI [1] [M⁻¹ s⁻¹],EC50 [3] [nM],"EC50 [5, 17] [nM]","EC50 ([5]; Table 3, XTT, read-out: EC50) [nM]","EC50 ([6]; Human rhinovirus sp., H1-HeLa) [nM]",SMILES,CC50 at 2 days [12] [nM],also measured
260000,1000,250,250,,"CCOC(=O)/C=C/[C@H](CCC(N)=O)NC(=O)[C@H](Cc1ccccc1)NC(=O)[C@H](CC(C)C)NC(=O)c1cc(C)on1 [Compound A-1, Ethyl-3-((5′-Methylisoxazole-3′-carbonyl)-L-Leu-L-Phe-L-Gin)-E-Propenoate]",,"EC50 ([2]; Human rhinovirus sp.): 220 nM; EC50 ([4]; Human rhinovirus sp., H1-HeLa): 410 nM"
237000,7100,220,220,2700,CCOC(=O)/C=C/[C@H](CCC(N)=O)NC(=O)[C@H](Cc1ccc(C)cc1)NC(=O)[C@@H](NC(=O)C1SCCS1)C(C)(C)C [Compound A-15],> 100000,
173000,4800,450,450,4500,CCOC(=O)/C=C/[C@H](CCC(N)=O)NC(=O)[C@H](Cc1ccc(C)cc1)NC(=O)[C@@H](NC(=O)c1ccc[nH]1)C(C)(C)C [Compound A-16],> 100000,
167000,1800,60,60,3300,CCOC(=O)/C=C/[C@H](CCC(N)=O)NC(=O)[C@H](Cc1ccc(F)cc1)NC(=O)[C@@H](NC(=O)C1SCCS1)C(C)(C)C [Compound A-17],> 100000,
257000,,100,100,,"CCOC(=O)/C=C/[C@H](C[C@@H]1CCNC1=O)NC(=O)[C@H](Cc1ccccc1)NC(=O)[C@H](CC(C)C)NC(=O)OCc1ccccc1 [Compound A-24, Ethyl-3-{Cbz-L-Leu-L-Phe-L-((S)-Pyrrol-Ala)}-E-Propenoate]",,kinact/KI [13]: 31000 M⁻¹ s⁻¹
240000,300,100,100,400,"CCOC(=O)/C=C/[C@H](CCC(N)=O)NC(=O)[C@@H](CC(=O)[C@@H](NC(=O)c1cc(C)on1)C(C)C)Cc1ccc(F)cc1 [Compound B-1, Ethyl-3-[(5′-Methylisoxazole-3′-carbonyl)-L-ValΨ(COCH2)-L-(4-F-Phe)-L-Gln}-E-Propenoate]",,
